Literature values in patent US20040253327A1, “Compositions and methods for reducing or controlling blood cholesterol, lipoproteins, triglycerides, and sugar and preventing or treating cardiovascular diseases” (priority 2003, published 2004).

Experiments:
[1] = human, in vivo

patients developing gastrointestinal complaints [1]	Compound	reduction of blood triglyceride and LDL cholesterol levels [1]	triglyceride level (after 2 months of supplementation (vs. 161 mg/dl)) [mg/dL]	reduction in triglyceride levels (supplementation for 2 months, P<0.05) [%]
Up to 30%	CN(C)C(=N)N=C(N)N [metformin]	about 10%	–	–
–	chromium picolinate	–	133	17.4
